Each molecule was assayed against T1, recombinant human plasminogen activator inhibitor-1 (PAI-1) (Homo sapiens, UniProt P05121) (assay: Screening for PAI-1 inhibition (residual tPA activity, Spectrozyme-tPA chromogenic substrate)). Conditions: test compound at 100 Um; pH 6.6 buffer, 140 nM PAI-1, 70 nM tPA.
T1 construct: purchased Molecular Innovations, Royal Oak, Mich
Type: biochemical
Outline: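 PAI-1 at 140 nM, pH 6.6 buffer, preincubated 1 h at room temperature with compound (1-100 μM final, ≤0.2% DMSO), then 70 nM tPA added for 30 min. Residual tPA activity read by Spectrozyme-tPA absorbance at 405 nm at 0 and 60 min. Inhibition taken as residual tPA activity.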

T1 sequence (P05121 24-402): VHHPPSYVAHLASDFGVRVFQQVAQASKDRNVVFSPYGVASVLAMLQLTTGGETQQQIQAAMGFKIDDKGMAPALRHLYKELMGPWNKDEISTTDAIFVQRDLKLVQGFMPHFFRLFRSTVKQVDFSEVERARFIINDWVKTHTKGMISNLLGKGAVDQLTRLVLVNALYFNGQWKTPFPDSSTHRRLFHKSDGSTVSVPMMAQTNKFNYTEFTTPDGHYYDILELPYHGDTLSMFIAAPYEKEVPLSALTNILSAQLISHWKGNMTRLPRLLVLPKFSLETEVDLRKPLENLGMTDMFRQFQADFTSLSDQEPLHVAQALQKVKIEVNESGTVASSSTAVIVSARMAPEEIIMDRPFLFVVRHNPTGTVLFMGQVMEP

Row | SMILES | inhibition at 100 µM
1 | O=C(O)CO/N=C/c1cccc(OCc2ccc(Br)cc2)c1OCc1ccc(Br)cc1 [Compound 132, {[((1E)-{2,3-bis[(4-bromobenzyl)oxy]phenyl}methylidene)amino]oxy}acetic acid] | 65%
2 | O=C(O)CO/N=C/c1cccc(OCc2ccc(F)cc2)c1OCc1ccc(F)cc1 [Compound 133, {[((1E)-{2,3-bis[(4-fluorobenzyl)oxy]phenyl}methylidene)amino]oxy}acetic acid] | 20%
3 | O=C(O)CO/N=C/c1cccc(OCc2ccc(C(F)(F)F)cc2)c1OCc1ccc(C(F)(F)F)cc1 [Compound 134, ({[(1E)-(2,3-bis{[4-(trifluoromethyl)benzyl]oxy}phenyl)methylidene]amino}oxy)acetic acid] | 100%
4 | CC(C)(C)c1ccc(COc2cccc(/C=N/OCC(=O)O)c2OCc2ccc(C(C)(C)C)cc2)cc1 [Compound 135, {[((1E)-{2,3-bis[(4-tert-butylbenzyl)oxy]phenyl}methylidene)amino]oxy}acetic acid] | 58%
5 | O=C(O)CO/N=C/c1cccc(OCc2cccc(Br)c2)c1OCc1cccc(Br)c1 [Compound 137, {[((1E)-{2,3-bis[(3-bromobenzyl)oxy]phenyl}methylidene)amino]oxy}acetic acid] | 79%
6 | O=C(O)CO/N=C/c1cccc(OCc2cccc(C(F)(F)F)c2)c1OCc1cccc(C(F)(F)F)c1 [Compound 139, ({[(1E)-(2,3-bis{[3-(trifluoromethyl)benzyl]oxy}phenyl)methylidene]amino}oxy)acetic acid] | 90%
7 | O=C(O)CO/N=C/c1cc(OCc2cccc(Cl)c2)cc(OCc2cccc(Cl)c2)c1 [Compound 142, {[((1E)-{3,5-bis[(3-chlorobenzyl)oxy]phenyl}methylidene)amino]oxy}acetic acid] | 86%
8 | O=C(O)CO/N=C/c1cc(OCc2cccc(Br)c2)cc(OCc2cccc(Br)c2)c1 [Compound 147, {[((1E)-{3,5-bis[(3-bromobenzyl)oxy]phenyl}methylidene)amino]oxy}acetic acid] | 87%
9 | O=C(O)CO/N=C/c1cc(OCc2cccc(C(F)(F)F)c2)cc(OCc2cccc(C(F)(F)F)c2)c1 [Compound 149, ({[(1E)-(3,5-bis{[3-(trifluoromethyl)benzyl]oxy}phenyl)methylidene]amino}oxy)acetic acid] | 91%
10 | Cc1ccc(COc2cc(/C=N/OCC(=O)O)cc(OCc3ccc(C)cc3)c2)cc1 [Compound 150, {[((1E)-{3,5-bis[(4-methylbenzyl)oxy]phenyl}methylidene)amino]oxy}acetic acid] | 90%
11 | O=C(O)CO/N=C/c1cc(OCc2ccc(F)c(F)c2)cc(OCc2ccc(F)c(F)c2)c1 [Compound 151, {[((1E)-{3,5-bis[(3,4-difluorobenzyl)oxy]phenyl}methylidene)amino]oxy}acetic acid] | 88%
12 | O=C(O)CO/N=C/c1cc(OCc2ccc(F)cc2)ccc1OCc1ccc(F)cc1 [Compound 153, {[((1E)-{2,5-bis[(4-fluorobenzyl)oxy]phenyl}methylidene)amino]oxy}acetic acid] | 96%
13 | O=C(O)CO/N=C/c1cc(OCc2ccc(C(F)(F)F)cc2)ccc1OCc1ccc(C(F)(F)F)cc1 [Compound 154, ({[(1E)-(2,5-bis{[4-(trifluoromethyl)benzyl]oxy}phenyl)methylidene]amino}oxy)acetic acid] | 91%
14 | O=C(O)CO/N=C/c1cc(OCc2ccc(Br)cc2)ccc1OCc1ccc(Br)cc1 [Compound 155, {[((1E)-{2,5-bis[(4-bromobenzyl)oxy]phenyl}methylidene)amino]oxy}acetic acid] | 85%
15 | O=C(O)CO/N=C/c1cc(OCc2cccc(Cl)c2)ccc1OCc1cccc(Cl)c1 [Compound 157, {[((1E)-{2,5-bis[(3-chlorobenzyl)oxy]phenyl}methylidene)amino]oxy}acetic acid] | 85%
16 | O=C(O)CO/N=C/c1cc(OCc2cccc(Br)c2)ccc1OCc1cccc(Br)c1 [Compound 158, {[((1E)-{2,5-bis[(3-bromobenzyl)oxy]phenyl}methylidene)amino]oxy}acetic acid] | 69%
17 | Cc1ccc(COc2ccc(OCc3ccc(C)cc3)c(/C=N/OCC(=O)O)c2)cc1 [Compound 160, {[((1E)-{2,5-bis[(4-methylbenzyl)oxy]phenyl}methylidene)amino]oxy}acetic acid] | 76%
18 | O=C(O)CO/N=C/c1cc(OCc2ccc(F)c(F)c2)ccc1OCc1ccc(F)c(F)c1 [Compound 161, {[((1E)-{2,5-bis[(3,4-difluorobenzyl)oxy]phenyl}methylidene)amino]oxy}acetic acid] | 92%
19 | O=C(O)CO/N=C/c1ccc(C#CCOc2ccc(Br)cc2)cc1 [Compound 163, {[((1E)-{4-[3-(4-bromophenoxy)prop-1-ynyl]phenyl}methylidene)amino]oxy}acetic acid] | 65%
20 | O=C(O)CO/N=C/c1ccc(C#CCOc2cc(Cl)cc(Cl)c2)cc1 [Compound 165, {[((1E)-{4-[3-(3,5-dichlorophenoxy)prop-1-ynyl]phenyl}methylidene)amino]oxy}acetic acid] | 68%

Second part, the molecule after the results:

Row | inhibition at 100 µM | SMILES
21 | 90% | Cc1cccc(COc2ccc(/C=N/OCC(=O)O)c(OCc3cccc(C)c3)c2)c1 [Compound 129, {[((1E)-{2,4-bis[(3-methylbenzyl)oxy]phenyl}methylidene)amino]oxy}acetic acid]
22 | 91% | O=C(O)CO/N=C/c1ccc(OCc2cccc(C(F)(F)F)c2)cc1OCc1cccc(C(F)(F)F)c1 [Compound 130, ({[(1E)-(2,4-bis{[3-(trifluoromethyl)benzyl]oxy}phenyl)methylidene]amino}oxy)acetic acid]
23 | 88% | O=C(O)CO/N=C/c1ccc(OCc2ccc(F)c(F)c2)cc1OCc1ccc(F)c(F)c1 [Compound 131, {[((1E)-{2,4-bis[(3,4-difluorobenzyl)oxy]phenyl}methylidene)amino]oxy}acetic acid]
24 | 80% | O=C(O)CO/N=C/c1cccc(OCc2cccc(Cl)c2)c1OCc1cccc(Cl)c1 [Compound 136, {[((1E)-{2,3-bis[(3-chlorobenzyl)oxy]phenyl}methylidene)amino]oxy}acetic acid]
25 | 88% | Cc1cccc(COc2cccc(/C=N/OCC(=O)O)c2OCc2cccc(C)c2)c1 [Compound 138, {[((1E)-{2,3-bis[(3-methylbenzyl)oxy]phenyl}methylidene)amino]oxy}acetic acid]
26 | 94% | Cc1ccc(COc2cccc(/C=N/OCC(=O)O)c2OCc2ccc(C)cc2)cc1 [Compound 140, {[((1E)-{2,3-bis[(4-methylbenzyl)oxy]phenyl}methylidene)amino]oxy}acetic acid]
27 | 48% | O=C(O)CO/N=C/c1cccc(OCc2ccc(F)c(F)c2)c1OCc1ccc(F)c(F)c1 [Compound 141, {[((1E)-{2,3-bis[(3,4-difluorobenzyl)oxy]phenyl}methylidene)amino]oxy}acetic acid]
28 | 95% | O=C(O)CO/N=C/c1cc(OCc2ccc(F)cc2)cc(OCc2ccc(F)cc2)c1 [Compound 143, {[((1E)-{3,5-bis[(4-fluorobenzyl)oxy]phenyl}methylidene)amino]oxy}acetic acid]
29 | 93% | O=C(O)CO/N=C/c1cc(OCc2ccc(C(F)(F)F)cc2)cc(OCc2ccc(C(F)(F)F)cc2)c1 [Compound 144, ({[(1E)-(3,5-bis{[4-(trifluoromethyl)benzyl]oxy}phenyl)methylidene]amino}oxy)acetic acid]
30 | 100% | O=C(O)CO/N=C/c1cc(OCc2ccc(Br)cc2)cc(OCc2ccc(Br)cc2)c1 [Compound 145, {[((1E)-{3,5-bis[(4-bromobenzyl)oxy]phenyl}methylidene)amino]oxy}acetic acid]
31 | 49% | CC(C)(C)c1ccc(COc2cc(/C=N/OCC(=O)O)cc(OCc3ccc(C(C)(C)C)cc3)c2)cc1 [Compound 146, {[((1E)-{3,5-bis[(4-tert-butylbenzyl)oxy]phenyl}methylidene)amino]oxy}acetic acid]
32 | 88% | Cc1cccc(COc2cc(/C=N/OCC(=O)O)cc(OCc3cccc(C)c3)c2)c1 [Compound 148, {[((1E)-{3,5-bis[(3-methylbenzyl)oxy]phenyl}methylidene)amino]oxy}acetic acid]
33 | 100% | O=C(O)CO/N=C/c1cc(OCc2cccc(C(F)(F)F)c2)ccc1OCc1cccc(C(F)(F)F)c1 [Compound 152, ({[(1E)-(2,5-bis{[3-(trifluoromethyl)benzyl]oxy}phenyl)methylidene]amino}oxy)acetic acid]
34 | 99% | CC(C)(C)c1ccc(COc2ccc(OCc3ccc(C(C)(C)C)cc3)c(/C=N/OCC(=O)O)c2)cc1 [Compound 156, {[((1E)-{2,5-bis[(4-tert-butylbenzyl)oxy]phenyl}methylidene)amino]oxy}acetic acid]
35 | 69% | Cc1cccc(COc2ccc(OCc3cccc(C)c3)c(/C=N/OCC(=O)O)c2)c1 [Compound 159, {[((1E)-{2,5-bis[(3-methylbenzyl)oxy]phenyl}methylidene)amino]oxy}acetic acid]
36 | 51% | CC(C)(C)c1ccc(OCC#Cc2ccc(/C=N/OCC(=O)O)cc2)cc1 [Compound 162, {[((1E)-{4-[3-(4-tert-butylphenoxy)prop-1-ynyl]phenyl}methylidene)amino]oxy}acetic acid]
37 | 73% | O=C(O)CO/N=C/c1ccc(C#CCOc2cc(C(F)(F)F)cc(C(F)(F)F)c2)cc1 [Compound 164, ({[(1E)-(4-{3-[3,5-bis(trifluoromethyl)phenoxy]prop-1-ynyl}phenyl)methylidene]amino}oxy) acetic acid]
38 | 42% | O=C(O)CO/N=C/c1ccc(C#CCOc2cccc(Cl)c2)cc1 [Compound 166, {[((1E)-{4-[3-(3-chlorophenoxy)prop-1-ynyl]phenyl}methylidene)amino]oxy}acetic acid]

From US7411083B2, “Substituted acetic acid derivatives” (Wyeth, priority 2003, dated 2008)
